Results on 22 compounds are retold here after patent US10844044B2 (Vanderbilt University, priority 2018, dated 2020).

One may read the Ki as the equilibrium dissociation constant of an inhibitor or competing ligand from its target.

Read-outs that look alike come from different tables or passages of the source. Some results are limits rather than exact numbers.

The subject of assay [1] is MV4:11 human cancer cell lines. Briefly: Anti-proliferative activity, CellTiter-Glo viability assay, 7 day protocol. The class given is cell-based. The settings on record: Homo sapiens, MV4-11, 168 h, MV4:11 cells, 7 day incubation, read-out: GI50 on cellular proliferation of MV4:11 human cancer cell lines. The method in brief:
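MV4:11 cells seeded at 3600 cells/ml and exposed to compounds for 7 days, 0.1% DMSO final. Viability measured by CellTiter-Glo luminescence. GI50 from three biological replicates, each in technical triplicate, given as mean ± S.E.M.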

Assay [2] deals with WDR5 (Homo sapiens (Human), UniProt P61964). Description: TR-FRET binding assay (displacement of 10mer-Thr-FAM probe from WDR5).
Setting [3] is: read-out: Ki for Inhibition of WDR5 by TR-FRET assay, TR-FRET, 10mer-Thr-FAM probe, WDR5-His tag 2 nM, pH 7.0.
The mark [4] stands for this setting: read-out: Ki for Inhibition of WDR5 by TR-FRET assay.

In the case of `Cn1ccn(Cc2cc(C(=O)NC(CC(=O)O)c3ccc(Cl)c(Cl)c3)nc(-c3ccc(F)cc3C(F)(F)F)c2)c1=N` (centres unmarked) [Example 104, 3-(3,4-Dichlorophenyl)-3-(6-(4-fluoro-2-(trifluoromethyl)phenyl)-4-((2-imino-3-methyl-2,3-dihydro-1H-imidazol-1-yl)methyl)picolinamido)propanoic acid], in assay [1], the GI50 worked out at 14000 nM. In addition, the Ki in assay [2] (setting [3]) is 0.13 nM.

With `Cc1ccnc(C(NC(=O)c2cc(Cn3ccn(C)c3=N)cc(-c3ccc(F)cc3C(F)(F)F)c2F)C2CC2)c1` (centres unmarked) [Example 105, N-(Cyclopropyl(4-methylpyridin-2-yl)methyl)-2,4′-difluoro-5-((2-imino-3-methyl-2,3-dihydro-1H-imidazol-1-yl)methyl)-2′-(trifluoromethyl)-[1,1′-biphenyl]-3-carboxamide], in assay [1], the GI50 was 400 nM. Further, in assay [2] (setting [3]), the Ki is under 0.1 nM.

As for `Cc1cc([C@@H](NC(=O)c2cc(Cn3ccn(C)c3=N)cc(-c3ccc(F)cc3C(F)(F)F)n2)C2CC2)ccc1F` [Example 107, (S)—N-(Cyclopropyl(4-fluoro-3-methylphenyl)methyl)-6-(4-fluoro-2-(trifluoromethyl)phenyl)-4-((2-imino-3-methyl-2,3-dihydro-1H-imidazol-1-yl)methyl)picolinamide], the GI50 in assay [1] was 950 nM. In assay [2] (setting [3]), the Ki is 0.23 nM.

As for `COc1cc(CNC(=O)c2cc(Cn3ccn(C)c3=N)cc(-c3ccc(F)cc3C(F)(F)F)c2F)cc(OC)c1` [Example 108, N-(3,5-Dimethoxybenzyl)-2,4′-difluoro-5-((2-imino-3-methyl-2,3-dihydro-1H-imidazol-1-yl)methyl)-2′-(trifluoromethyl)-[1,1′-biphenyl]-3-carboxamide], in assay [1], the GI50 is 310 nM. The inhibition constant (Ki) in assay [2] (setting [3]) was under 0.1 nM.

For `Cc1cc(CNC(=O)c2cc(Cn3ccn(C)c3=N)cc(-c3ccc(F)cc3C(F)(F)F)c2F)ccc1Cl` [Example 111, N-(4-Chloro-3-methylbenzyl)-2,4′-difluoro-5-((2-imino-3-methyl-2,3-dihydro-1H-imidazol-1-yl)methyl)-2′-(trifluoromethyl)-[1,1′-biphenyl]-3-carboxamide], the GI50 in assay [1] was determined as 300 nM. For the same compound, the Ki in assay [2] (setting [3]) is under 0.1 nM.

As to `CCn1ccn(Cc2cc(C(=O)N[C@H](c3ccc(F)c(C)c3)C3CC3)cc(-c3cccnc3C(F)(F)F)c2)c1=N` [Example 114, (S)—N-(Cyclopropyl(4-fluoro-3-methylphenyl)methyl)-3-((3-ethyl-2-imino-2,3-dihydro-1H-imidazol-1-yl)methyl)-5-(2-(trifluoromethyl)pyridin-3-yl)benzamide], the GI50 in assay [1] came to 300 nM. Also, the Ki in assay [2] (setting [4]) was under 0.1 nM.

As to `Cc1cc([C@@H](NC(=O)c2cc(Cn3ccn(C4CC4)c3=N)cc(-c3cccnc3C(F)(F)F)c2)C2CC2)ccc1F` [Example 115, (S)—N-(Cyclopropyl(4-fluoro-3-methylphenyl)methyl)-3-((3-cyclopropyl-2-imino-2,3-dihydro-1H-imidazol-1-yl)methyl)-5-(2-(trifluoromethyl)pyridin-3-yl)benzamide], in assay [1], the GI50 was under 100 nM. For the same compound, the Ki in assay [2] (setting [3]) was under 0.1 nM.

Turning to `CCn1ccn(Cc2cc(C(=O)NCc3cc(OC)cc(OC)c3)cc(-c3ccc(F)cc3C)c2)c1=N` [Example 116, N-(3,5-Dimethoxybenzyl)-5-((3-ethyl-2-imino-2,3-dihydro-1H-imidazol-1-yl)methyl)-4′-fluoro-2′-methyl-[1,1′-biphenyl]-3-carboxamide], the GI50 in assay [1] is 570 nM. Also, the Ki in assay [2] (setting [3]) is 0.4 nM.

With `COc1cc(CNC(=O)c2cc(Cn3ccn(C4CC4)c3=N)cc(-c3ccc(F)cc3C)c2)cc(OC)c1` [Example 117, 5-((3-Cyclopropyl-2-imino-2,3-dihydro-1H-imidazol-1-yl)methyl)-N-(3,5-dimethoxybenzyl)-4′-fluoro-2′-methyl-[1,1′-biphenyl]-3-carboxamide], the GI50 in assay [1] was 310 nM. Moreover, the Ki in assay [2] (setting [3]) came to 0.15 nM.

Regarding `COc1cc(OC)cc(C(NC(=O)c2cc(Cn3ccn(C)c3=N)cc(-c3ccnn3C(C)C)c2)C2CC2)c1` (centres unmarked) [Example 118, N-(Cyclopropyl(3,5-dimethoxyphenyl)methyl)-3-((2-imino-3-methyl-2,3-dihydro-1H-imidazol-1-yl)methyl)-5-(1-isopropyl-1H-pyrazol-5-yl)benzamide], in assay [1], the GI50 amounted to 6300 nM. In assay [2] (setting [3]), the inhibitory constant (Ki) was determined as 0.83 nM.

Take `Cc1cc([C@@H](NC(=O)c2cc(Cn3ccn(C)c3=N)cc(-c3cccnc3C(F)(F)F)n2)C2CC2)ccc1F` [Example 119, (S)—N-(Cyclopropyl(4-fluoro-3-methylphenyl)methyl)-4-((2-imino-3-methyl-2,3-dihydro-1H-imidazol-1-yl)methyl)-2′-(trifluoromethyl)-[2,3′-bipyridine]-6-carboxamide]: the GI50 in assay [1] turned out to be 7600 nM. The Ki in assay [2] (setting [3]) was determined as 0.16 nM.

With `Cc1ccnc([C@@H](NC(=O)c2cc(Cn3ccn(C)c3=N)cc(-c3ccc(F)cc3C(F)(F)F)c2F)C2CC2)c1` [Example 120, (S)—N-(Cyclopropyl(4-methylpyridin-2-yl)methyl)-2,4′-difluoro-5-((2-imino-3-methyl-2,3-dihydro-1H-imidazol-1-yl)methyl)-2′-(trifluoromethyl)-[1,1′-biphenyl]-3-carboxamide], in assay [1], the GI50 amounted to 220 nM. In assay [2] (setting [3]), the Ki is under 0.1 nM.

Regarding `CC(=O)/N=c1\n(C)ccn1Cc1cc(C(=O)NCc2ccc(Cl)c(Cl)c2)cc(-c2ccc(F)nc2C)c1` [Example 121, (E)-3-((2-(acetylimino)-3-methyl-2,3-dihydro-1H-imidazol-1-yl)methyl)-N-(3,4-dichlorobenzyl)-5-(6-fluoro-2-methylpyridin-3-yl)benzamide], the GI50 in assay [1] was 5900 nM. Further, in assay [2] (setting [4]), the Ki is over 33 nM.

Take `CCOC(=O)/N=c1\n(C)ccn1Cc1cc(C(=O)NCc2ccc(Cl)c(Cl)c2)cc(-c2ccc(F)nc2C)c1` [Example 122, Ethyl (1-(3-((3,4-dichlorobenzyl)carbamoyl)-5-(6-fluoro-2-methylpyridin-3-yl)benzyl)-3-methyl-1,3-dihydro-2H-imidazol-2-ylidene)carbamate]: the GI50 in assay [1] turned out to be 4200 nM. Further, in assay [2] (setting [4]), the inhibitory constant (Ki) was over 33 nM.

For the compound `Cc1cc([C@@H](NC(=O)c2cc(Cn3ccn(C)c3=N)cc(-c3cn(C)nc3C(F)(F)F)c2)C2CC2)ccc1F` [Example 125, (S)—N-(Cyclopropyl(4-fluoro-3-methylphenyl)methyl)-3-((2-imino-3-methyl-2,3-dihydro-1H-imidazol-1-yl)methyl)-5-(1-methyl-3-(trifluoromethyl)-1H-pyrazol-4-yl)benzamide], the GI50 in assay [1] was found to be 180 nM. The inhibitory constant (Ki) in assay [2] was under 0.1 nM.

Turning to `Cc1cc([C@@H](NC(=O)c2cc(Cn3ccn(C)c3=N)cc(-c3cccnc3OC(F)F)c2)C2CC2)ccc1F` [Example 127, (S)—N-(Cyclopropyl(4-fluoro-3-methylphenyl)methyl)-3-(2-(difluoromethoxy)pyridin-3-yl)-5-((2-imino-3-methyl-2,3-dihydro-1H-imidazol-1-yl)methyl)benzamide], the GI50 in assay [1] came out at 730 nM. Further, the inhibitory constant (Ki) in assay [2] (setting [3]) turned out to be 0.21 nM.

Consider `Cc1cc([C@@H](NC(=O)c2cc(Cn3ccn(C)c3=N)cc(-c3cccnc3C(F)(F)F)c2F)C2CC2)ccc1F` [Example 131, (S)—N-(Cyclopropyl(4-fluoro-3-methylphenyl)methyl)-2-fluoro-5-((2-imino-3-methyl-2,3-dihydro-1H-imidazol-1-yl)methyl)-3-(2-(trifluoromethyl)pyridin-3-yl)benzamide], for which, in assay [1], the GI50 stood at 140 nM. The Ki in assay [2] (setting [3]) is under 0.1 nM.

Regarding `Cc1ccnc([C@@H](NC(=O)c2cc(Cn3ccn(C)c3=N)cc(-c3cccnc3C(F)(F)F)c2F)C2CC2)c1` [Example 132, (S)—N-(Cyclopropyl(4-methylpyridin-2-yl)methyl)-2-fluoro-5-((2-imino-3-methyl-2,3-dihydro-1H-imidazol-1-yl)methyl)-3-(2-(trifluoromethyl)pyridin-3-yl)benzamide], in assay [1], the GI50 was found to be 610 nM. For the same compound, in assay [2] (setting [3]), the Ki amounted to 0.13 nM.

In the case of `Cc1cc([C@@H](NC(=O)c2cc(Cn3ccn(C)c3=N)cc(C3CC3)c2)C2CC2)ccc1F` [Example 139, (S)-3-Cyclopropyl-N-(cyclopropyl(4-fluoro-3-methylphenyl)methyl)-5-((2-imino-3-methyl-2,3-dihydro-1H-imidazol-1-yl)methyl)benzamide], the GI50 in assay [1] is 730 nM. For the same compound, the Ki in assay [2] (setting [4]) is 0.18 nM.

In the case of `Cc1cc([C@@H](NC(=O)c2cc(Cn3ccn(C4CC4)c3=N)cc(-c3ccc(F)cc3Cl)c2)C2CC2)ccc1F` [Example 141, (S)-2′-Chloro-N-(cyclopropyl(4-fluoro-3-methylphenyl)methyl)-5-((3-cyclopropyl-2-imino-2,3-dihydro-1H-imidazol-1-yl)methyl)-4′-fluoro-[1,1′-biphenyl]-3-carboxamide], the GI50 in assay [1] was under 100 nM. Further, the inhibition constant Ki in assay [2] (setting [3]) was under 0.1 nM.

As to `Cc1cc([C@@H](NC(=O)c2cc(Cn3ccn(C4CC4)c3=N)cc(-c3cn(C)nc3C(F)(F)F)c2)C2CC2)ccc1F` [Example 142, (S)—N-(Cyclopropyl(4-fluoro-3-methylphenyl)methyl)-3-((3-cyclopropyl-2-imino-2,3-dihydro-1H-imidazol-1-yl)methyl)-5-(1-methyl-3-(trifluoromethyl)-1H-pyrazol-4-yl)benzamide], the GI50 in assay [1] was under 100 nM. Moreover, the Ki in assay [2] (setting [3]) is under 0.1 nM.

Regarding `Cc1cc([C@@H](NC(=O)c2cc(CN3CCN(C)C3=N)cc(-c3cccnc3C(F)(F)F)c2)C2CC2)ccc1F` [Example 143, (S)—N-(Cyclopropyl(4-fluoro-3-methylphenyl)methyl)-3-((2-imino-3-methylimidazolidin-1-yl)methyl)-5-(2-(trifluoromethyl)pyridin-3-yl)benzamide], the GI50 in assay [1] was 170 nM. The Ki in assay [2] (setting [4]) was under 0.1 nM.
